# Columns and labels:
# Format in all cases: functional
# Settings in all cases: read-out: IZ
# [1] = tested on: Pseudomonas aeruginosa; assay: Antibacterial activity against Pseudomonas aeruginosa at 100 ug/ml by cup-plate method
# [2] = tested on: Staphylococcus aureus; assay: Antibacterial activity against Staphylococcus aureus at 100 ug/ml by cup-plate method
# [3] = tested on: Candida albicans; assay: Antifungal activity against Candida albicans at 100 ug/ml by cup-plate method
# [4] = tested on: Escherichia coli; assay: Antibacterial activity against Escherichia coli at 100 ug/ml by cup-plate method
# [5] = tested on: Bacillus subtilis; assay: Antibacterial activity against Bacillus subtilis at 100 ug/ml by cup plate method
SMILES,zone of inhibition at 100 µg/mL [1],zone of inhibition at 100 µg/mL [2],zone of inhibition at 100 µg/mL [3],zone of inhibition at 100 µg/mL [4],zone of inhibition at 100 µg/mL [5]
O=C(NC(=S)Nc1ccc([N+](=O)[O-])cc1)c1cn(CCO)c2c(cc(O)c3ncccc32)c1=O,10 mm,10 mm,4 mm,12 mm,9 mm
Cc1cccc(NC(=S)NC(=O)c2cn(CCO)c3c(cc(O)c4ncccc43)c2=O)c1,9 mm,9 mm,3 mm,9 mm,8 mm
O=C(NC(=S)Nc1cccc(Cl)c1)c1cn(CCO)c2c(cc(O)c3ncccc32)c1=O,9 mm,9 mm,3 mm,10 mm,10 mm
O=C(NC(=S)Nc1ccc(O)cc1)c1cn(CCO)c2c(cc(Cl)c3ncccc32)c1=O,11 mm,12 mm,5 mm,12 mm,11 mm
O=C(NC(=S)Nc1ccccc1[N+](=O)[O-])c1cn(CCO)c2c(cc(Cl)c3ncccc32)c1=O,–,–,4 mm,10 mm,9 mm
O=C(NC(=S)Nc1ccc([N+](=O)[O-])cc1)c1cn(CCO)c2c(cc(Cl)c3ncccc32)c1=O,9 mm,11 mm,5 mm,10 mm,12 mm
Cc1ccccc1NC(=S)NC(=O)c1cn(CCO)c2c(cc(Cl)c3ncccc32)c1=O,4 mm,6 mm,2 mm,0 mm,8 mm
Cc1cccc(NC(=S)NC(=O)c2cn(CCO)c3c(cc(Cl)c4ncccc43)c2=O)c1,10 mm,10 mm,4 mm,11 mm,9 mm
O=C(NC(=S)Nc1cccc(Cl)c1)c1cn(CCO)c2c(cc(Cl)c3ncccc32)c1=O,9 mm,8 mm,3 mm,9 mm,10 mm
O=C(NC(=S)Nc1ccccc1)c1cn(CCO)c2c(cc(O)c3ncccc32)c1=O,10 mm,–,4 mm,–,–
O=C(NC(=S)Nc1cccc(O)c1)c1cn(CCO)c2c(cc(O)c3ncccc32)c1=O,7 mm,8 mm,3 mm,9 mm,10 mm
COc1ccc(NC(=S)NC(=O)c2cn(CCO)c3c(cc(O)c4ncccc43)c2=O)cc1,8 mm,8 mm,2 mm,8 mm,6 mm
Cc1ccc(C)c(NS(=O)(=O)c2ccc(NC(=O)c3cn(CCO)c4c(cc(Cl)c5ncccc54)c3=O)cc2)c1,10 mm,10 mm,4 mm,10 mm,9 mm
O=C(Nc1ccc(S(=O)(=O)Nc2ccccc2)cc1)c1cn(CCO)c2c(cc(O)c3ncccc32)c1=O,10 mm,9 mm,3 mm,9 mm,8 mm
O=C(Nc1ccc(S(=O)(=O)Nc2cccc(Cl)c2)cc1)c1cn(CCO)c2c(cc(O)c3ncccc32)c1=O,8 mm,8 mm,3 mm,9 mm,9 mm
COc1ccc(NS(=O)(=O)c2ccc(NC(=O)c3cn(CCO)c4c(cc(O)c5ncccc54)c3=O)cc2)cc1,8 mm,10 mm,4 mm,8 mm,11 mm
O=C(Nc1ccc(S(=O)(=O)Nc2ccc([N+](=O)[O-])cc2)cc1)c1cn(CCO)c2c(cc(O)c3ncccc32)c1=O,10 mm,10 mm,4 mm,12 mm,11 mm
Cc1cccc(NS(=O)(=O)c2ccc(NC(=O)c3cn(CCO)c4c(cc(O)c5ncccc54)c3=O)cc2)c1,11 mm,11 mm,5 mm,10 mm,12 mm
Cc1ccc(C)c(NS(=O)(=O)c2ccc(NC(=O)c3cn(CCO)c4c(cc(O)c5ncccc54)c3=O)cc2)c1,11 mm,11 mm,4 mm,10 mm,9 mm
O=C(NC(=S)Nc1ccccc1)c1cn(CCO)c2c(cc(Cl)c3ncccc32)c1=O,9 mm,9 mm,3 mm,10 mm,11 mm

SMILES,zone of inhibition at 100 µg/mL [1],zone of inhibition at 100 µg/mL [2],zone of inhibition at 100 µg/mL [3],zone of inhibition at 100 µg/mL [4],zone of inhibition at 100 µg/mL [5]
O=C(Nc1ccccc1[N+](=O)[O-])c1cn(CCO)c2c(cc(O)c3ncccc32)c1=O,9 mm,10 mm,4 mm,9 mm,11 mm
Cc1ccccc1NC(=O)c1cn(CCO)c2c(cc(O)c3ncccc32)c1=O,–,–,0 mm,9 mm,–
Cc1ccc(NC(=O)c2cn(CCO)c3c(cc(O)c4ncccc43)c2=O)cc1,9 mm,9 mm,3 mm,10 mm,8 mm
O=C(Nc1ccc(S(=O)(=O)Nc2cccc(Cl)c2)cc1)c1cn(CCO)c2c(cc(Cl)c3ncccc32)c1=O,10 mm,11 mm,4 mm,10 mm,9 mm
COc1ccccc1NS(=O)(=O)c1ccc(NC(=O)c2cn(CCO)c3c(cc(Cl)c4ncccc43)c2=O)cc1,5 mm,–,–,5 mm,–
COc1ccc(NS(=O)(=O)c2ccc(NC(=O)c3cn(CCO)c4c(cc(Cl)c5ncccc54)c3=O)cc2)cc1,10 mm,9 mm,3 mm,9 mm,10 mm
O=C(Nc1ccc(S(=O)(=O)Nc2ccc([N+](=O)[O-])cc2)cc1)c1cn(CCO)c2c(cc(Cl)c3ncccc32)c1=O,9 mm,9 mm,3 mm,11 mm,10 mm
Cc1ccccc1NS(=O)(=O)c1ccc(NC(=O)c2cn(CCO)c3c(cc(Cl)c4ncccc43)c2=O)cc1,9 mm,9 mm,3 mm,9 mm,10 mm
O=C(Nc1ccccc1)c1cn(CCO)c2c(cc(Cl)c3ncccc32)c1=O,–,12 mm,5 mm,12 mm,–
O=C(Nc1cccc(Cl)c1)c1cn(CCO)c2c(cc(Cl)c3ncccc32)c1=O,7 mm,8 mm,3 mm,7 mm,9 mm
O=C(Nc1ccc(Cl)cc1)c1cn(CCO)c2c(cc(Cl)c3ncccc32)c1=O,6 mm,–,–,6 mm,7 mm
COc1ccccc1NC(=O)c1cn(CCO)c2c(cc(Cl)c3ncccc32)c1=O,8 mm,9 mm,3 mm,8 mm,10 mm
O=C(Nc1ccccc1[N+](=O)[O-])c1cn(CCO)c2c(cc(Cl)c3ncccc32)c1=O,–,–,4 mm,–,10 mm
O=C(Nc1cccc([N+](=O)[O-])c1)c1cn(CCO)c2c(cc(Cl)c3ncccc32)c1=O,9 mm,9 mm,3 mm,9 mm,6 mm
O=C(Nc1ccc([N+](=O)[O-])cc1)c1cn(CCO)c2c(cc(Cl)c3ncccc32)c1=O,–,–,4 mm,9 mm,–
Cc1cccc(NC(=O)c2cn(CCO)c3c(cc(Cl)c4ncccc43)c2=O)c1,10 mm,10 mm,4 mm,10 mm,9 mm
O=C(Nc1ccc(Cl)cc1)c1cn(CCO)c2c(cc(O)c3ncccc32)c1=O,–,–,5 mm,10 mm,10 mm
COc1ccc(NC(=O)c2cn(CCO)c3c(cc(O)c4ncccc43)c2=O)cc1,10 mm,10 mm,5 mm,11 mm,12 mm
C[C@@H]1[C@H](O)[C@@H](C)/C=C/C=C/C=C/C=C/C=C/C=C/C=C/[C@H](O[C@@H]2O[C@H](C)[C@@H](O)[C@H](N)[C@@H]2O)C[C@@H]2O[C@](O)(C[C@@H](O)C[C@@H](O)[C@H](O)CC[C@@H](O)C[C@@H](O)CC(=O)O[C@H]1C)C[C@H](O)[C@H]2C(=O)O [AMPHOTERICIN B],–,–,9 mm,–,–
O=C(O)c1cn(C2CC2)c2cc(N3CCNCC3)c(F)cc2c1=O [CIPROFLOXACIN],17 mm,17 mm,–,–,16 mm

# Reference: ChEMBL document CHEMBL3044825, “Synthesis and in vitro microbial activities of amides of pyridoquinolone” (2011)
